System: moderate-to-severe chronic spontaneous urticaria (CSU)
Test: Phase 2 CSU study: urticaria activity score over 7 days (UAS7)
Assay type: in vivo, human
Conditions: Omalizumab-naïve, 400 mg TID
Text: The study comprises a 12 week, randomized, double-blind, placebo-controlled, multi-center, dose-ranging efficacy and safety phase, followed by a 40 week open label extension (OLE) phase (see FIG. 1). The study consists of three phases and an optional OLE phase. […] Clinically, CSU is characterized by the spontaneous and recurrent appearance of pruritic hives. The proposed primary endpoints were the UAS7 at Week 12 in EU and EU reference countries and the ISS7 in the US. Regardless of where a participant was from, all assessments were the same. The UAS7 score is a composite score containing both the HSS7 and the ISS7. This allowed a global assessment of the two key components of urticaria: hives and itch. […] The UAS is a validated PRO measure. […] The daily UAS scores range from 0 to 6 point/day. […] Patients were to complete the UAS using the e-diary. […] The following secondary endpoints were to be analyzed using the same approach as for the primary endpoint: • Change from baseline in UAS7 at Week 4 • Change from baseline in UAS7 at Week 12 (for US and US reference countries) • Change from baseline in ISS7 at Week 12 (except US and US reference countries) • Change from baseline in HSS7 at Week 12 The following responder secondary endpoints were to be analyzed using the Cochran-Mantel-Haenszel test adjusted by region: • Proportion of participants with UAS7<6 at Week 12 • Proportion of participants with UAS7=0 at Week 12 Participants who received selected prohibited medications and/or rescue medications were to be considered as non-responders for time points after the medication usage. For other participants, all available data including those collected during the off-treatment period were to be used to determine the responder/non-responder status. Missing data were to be considered as non-responders.

CC(C)(C=C(C#N)C(=O)N1CCC[C@@H](n2nc(-c3ccc(Oc4ccccc4)cc3F)c3c(N)ncnc32)C1)N1CCN(C2COC2)CC1 [rilzabrutinib, (R)-2-[3-[4-amino-3-(2-fluoro-4-phenoxy-phenyl)pyrazolo[3,4-d]pyrimidin-1-yl]piperidine-1-carbonyl]-4-methyl-4-[4-(oxetan-3-yl)piperazin-1-yl]pent-2-enenitrile]
Imputed non-responder n (%), UAS7 = 0 (Week 3): 0 n (%) | Imputed non-responder n (%), UAS7 ≤6 (Week 3): 0 n (%) | Non-responder n (%), UAS7 = 0 (Week 3): 32 (91.4) n (%) | Non-responder n (%), UAS7 ≤6 (Week 3): 27 (77.1) n (%) | OR for rilzabrutinib vs. placebo, UAS7 = 0 (Week 3): 3.625 | OR for rilzabrutinib vs. placebo, UAS7 ≤6 (Week 3): 3.239 | RRD (%) for rilzabrutinib vs. placebo, UAS7 = 0 (Week 3): 5.8 % | RRD (%) for rilzabrutinib vs. placebo, UAS7 ≤6 (Week 3): 13.6 % | Responder n (%), UAS7 = 0 (Week 3): 3 (8.6) n (%) | Responder n (%), UAS7 ≤6 (Week 3): 8 (22.9) n (%) | Imputed non-responder n (%), UAS7 = 0 (Week 4): 3 (8.6) n (%) | Imputed non-responder n (%), UAS7 ≤6 (Week 4): 3 (8.6) n (%) | Non-responder n (%), UAS7 = 0 (Week 4): 32 (91.4) n (%) | Non-responder n (%), UAS7 ≤6 (Week 4): 30 (85.7) n (%) | OR for rilzabrutinib vs. placebo, UAS7 = 0 (Week 4): 1.460 | OR for rilzabrutinib vs. placebo, UAS7 ≤6 (Week 4): 1.185 | RRD (%) for rilzabrutinib vs. placebo, UAS7 = 0 (Week 4): 2.5 % | RRD (%) for rilzabrutinib vs. placebo, UAS7 ≤6 (Week 4): 1.8 % | Responder n (%), UAS7 = 0 (Week 4): 3 (8.6) n (%) | Responder n (%), UAS7 ≤6 (Week 4): 5 (14.3) n (%) | Imputed non-responder n (%), UAS7 = 0 (Week 5): 2 (5.7) n (%) | Imputed non-responder n (%), UAS7 ≤6 (Week 5): 2 (5.7) n (%) | Non-responder n (%), UAS7 = 0 (Week 5): 29 (82.9) n (%) | Non-responder n (%), UAS7 ≤6 (Week 5): 25 (71.4) n (%) | OR for rilzabrutinib vs. placebo, UAS7 = 0 (Week 5): 6.971 | OR for rilzabrutinib vs. placebo, UAS7 ≤6 (Week 5): 5.923 | RRD (%) for rilzabrutinib vs. placebo, UAS7 = 0 (Week 5): 13.2 % | RRD (%) for rilzabrutinib vs. placebo, UAS7 ≤6 (Week 5): 19.7 % | Responder n (%), UAS7 = 0 (Week 5): 6 (17.1) n (%) | Responder n (%), UAS7 ≤6 (Week 5): 10 (28.6) n (%) | Imputed non-responder n (%), UAS7 = 0 (Week 6): 4 (11.4) n (%) | Imputed non-responder n (%), UAS7 ≤6 (Week 6): 4 (11.4) n (%) | Non-responder n (%), UAS7 = 0 (Week 6): 28 (80.0) n (%) | Non-responder n (%), UAS7 ≤6 (Week 6): 27 (77.1) n (%) | OR for rilzabrutinib vs. placebo, UAS7 = 0 (Week 6): 8.082 | OR for rilzabrutinib vs. placebo, UAS7 ≤6 (Week 6): 1.274 | RRD (%) for rilzabrutinib vs. placebo, UAS7 = 0 (Week 6): 15.6 % | RRD (%) for rilzabrutinib vs. placebo, UAS7 ≤6 (Week 6): 3.7 % | Responder n (%), UAS7 = 0 (Week 6): 7 (20.0) n (%) | Responder n (%), UAS7 ≤6 (Week 6): 8 (22.9) n (%) | Imputed non-responder n (%), UAS7 = 0 (Week 7): 5 (14.3) n (%) | Imputed non-responder n (%), UAS7 ≤6 (Week 7): 5 (14.3) n (%) | Non-responder n (%), UAS7 = 0 (Week 7): 32 (91.4) n (%) | Non-responder n (%), UAS7 ≤6 (Week 7): 26 (74.3) n (%) | OR for rilzabrutinib vs. placebo, UAS7 = 0 (Week 7): 3.625 | OR for rilzabrutinib vs. placebo, UAS7 ≤6 (Week 7): 2.685 | RRD (%) for rilzabrutinib vs. placebo, UAS7 = 0 (Week 7): 5.8 % | RRD (%) for rilzabrutinib vs. placebo, UAS7 ≤6 (Week 7): 13.4 % | Responder n (%), UAS7 = 0 (Week 7): 3 (8.6) n (%) | Responder n (%), UAS7 ≤6 (Week 7): 9 (25.7) n (%) | Imputed non-responder n (%), UAS7 = 0 (Week 8): 7 (20.0) n (%) | Imputed non-responder n (%), UAS7 ≤6 (Week 8): 7 (20.0) n (%) | Non-responder n (%), UAS7 = 0 (Week 8): 32 (91.4) n (%) | Non-responder n (%), UAS7 ≤6 (Week 8): 26 (74.3) n (%) | OR for rilzabrutinib vs. placebo, UAS7 = 0 (Week 8): 1.351 | OR for rilzabrutinib vs. placebo, UAS7 ≤6 (Week 8): 1.513 | RRD (%) for rilzabrutinib vs. placebo, UAS7 = 0 (Week 8): 1.9 % | RRD (%) for rilzabrutinib vs. placebo, UAS7 ≤6 (Week 8): 6.3 % | Responder n (%), UAS7 = 0 (Week 8): 3 (8.6) n (%) | Responder n (%), UAS7 ≤6 (Week 8): 9 (25.7) n (%) | Imputed non-responder n (%), UAS7 = 0 (Week 9): 6 (17.1) n (%) | Imputed non-responder n (%), UAS7 ≤6 (Week 9): 6 (17.1) n (%) | Non-responder n (%), UAS7 = 0 (Week 9): 32 (91.4) n (%) | Non-responder n (%), UAS7 ≤6 (Week 9): 24 (68.6) n (%) | OR for rilzabrutinib vs. placebo, UAS7 = 0 (Week 9): 0.893 | OR for rilzabrutinib vs. placebo, UAS7 ≤6 (Week 9): 3.358

From patent US20260256792A1, “TREATMENT OF CHRONIC SPONTANEOUS URTICARIA BY ADMINISTERING (R)-2-[3-[4-AMINO-3-(2-FLUORO-4-PHENOXY-PHENYL)PYRAZOLO[3,4-D]PYRIMIDIN-1-YL]PIPERIDINE-1-CARBONYL]-4-METHYL-4-[4-(OXETAN-3-YL)PIPERAZIN-1-YL]PENT-2-ENENITRILE” (priority 2023, published 2026)
